# Measured values: patent publication US20210340130A1, “Compositions and methods for treating attention deficit disorders” (priority 2016, published 2021)
# “Also recorded” adds a separate entry of the source.
# Experiments:
# [1] = tested on: cyclothiazide binding site; conditions: cited from earlier work
# schizophrenia patients = conditions: cited from earlier work
# [2] = tested on: fragile X syndrome patients; conditions: cited from earlier work
# hippocampal slices = conditions: cited from earlier work
# BDNF production = conditions: 16 uM; cited from earlier work
# [3] = tested on: hippocampal slices (CA1 population spikes)
# Experimental: Slice Seizure Assay In these studies extracellular field potentials recording (Population Spikes) in hippocampal slices were used to determine convulsant activity (potential seizure liability). Transverse 300-400 μm hippocampal slices were taken from adult male Sprague-Dawley rats (4-6 week old) and incubated in a submerge slice recording chamber system for 30 to 60 min. The chamber was perfused with oxygenated artificial cerebral spinal fluid (ACSF) comprising (in mM): NaCl 124, KCl 3.0, KH2PO4 1.25, CaCl2.34, MgSO4 2.5, NaHCO3 26 and glucose 10 at room temperature. Population Spike (PS) recordings were made with glass electrodes filled with 2 M NaCl (1-5 megaohm) places in the region of pyramidal cell body of CA1. Electrical stimuli were produced with twisted bipolar nichrome wire electrodes in the Schaffer-commissural fiber afferents. Population spike was induced by activating Schaffer-commissural fiber using single pulse stimulation with delivered at 0.05 Hz. The maximal amplitude of PS was determined by increase stimulating intensity till second spike appears. Then the intensity was decreased to induce a 50% to 60% of maximal response. The amplitude of PS was measured for each response and plotted against time. At same time the amplitude of second PS and/or number of PS was measured and plotted against time. The size of the second PS and numbers of PS were used to estimate the seizure potential or seizure state. With 20 to 50 min stable baseline established testing compound was perfused for 10 to 20 min at each concentration to observe the effect. […] The perfusion then was switched to control ACSF and continued to record until drug effect was washed back to the baseline. CX717 and CX1739 exemplary test ampakine compounds were prepared by dissolving in DMSO and then added to ACSF.
# The upper 3 panels of FIG. 5 show amplitudes for PS 1, 2 and 3 m respectively. Lower panel is the measurement of the number of PS.
compound,measurement,setting,value
O=C(c1ccc2nccnc2c1)N1CCCCC1 [CX516],binding to the cyclothiazide binding site,[1],does not bind to the cyclothiazide binding site
same,cognition tests versus placebo groups,"schizophrenia patients; add-on to clozapine, olanzapine or risperidone, weeks 4 or 8",did not significantly differ
same,adverse side effects,schizophrenia patients; four weeks treatment,"fatigue, epigastric discomfort and insomnia"
same,"memory, language use, attention, executive and overall functioning",[2],did not exhibit improved memory
same,generalized discharges in hippocampal slices,hippocampal slices,do not
O=C(c1ccc2c(c1)OCCO2)N1CCCCC1 [CX546],binding to the cyclothiazide binding site,[1],binds to the cyclothiazide binding site
same,generalized discharges in hippocampal slices,hippocampal slices,produce generalized discharges
"O=C1c2cc3c(cc2OC2CCCN12)OCCO3 (stereo not shown) [CX614, reference compound]",BDNF production in hippocampal slices,BDNF production,significantly increases BDNF production
same,seizure / convulsant activity,[3]; 16 uM,demonstrated seizure potential activity; also recorded: unacceptable convulsant activity
picrotoxin [reference compound],seizure activity (population spikes),[3]; 50 μM perfusion,induced a seizure like activity at the level of second PS but not third PS
